The NIST ThermoML archive (doi:10.1016/j.jct.2013.03.026)
Numbers after ± are expanded uncertainties.

Legend:
[1] = DTA
[2] = Molar enthalpy of transition or fusion; conditions: DSC
[3] = molar heat capacity at constant pressure; conditions: 298.15 K, 101.33 kPa, Drop calorimetry

Structure (SMILES)	Triple point temperature ([1]; Crystal) [K]	Molar enthalpy of transition or fusion ([2]; Crystal) [kcal/mol]	molar heat capacity at constant pressure ([3]; Crystal) [J/K/mol]	other results
c1ccc(-c2ccc(-c3ccc(-c4ccccc4)cc3)cc2)cc1 [1,1':4',1'':4'',1'''-quaterphenyl]	594.4 ± 0.6	12.8 ± 0.359		
c1ccc(-c2ccc(-c3ccc(-c4ccc(-c5ccccc5)cc4)cc3)cc2)cc1 [1,1':4',1'':4'',1''':4''',1''''-quinquephenyl]				Triple point temperature ([1]; Crystal 1): 663.4 ± 3.9 K; Triple point temperature ([1]; Crystal 2): 642.2 ± 3.9 K; Triple point temperature ([1]; Nematic liquid crystal): 696 ± 3.9 K; Molar enthalpy of transition or fusion ([2]; Crystal 1): 11.7 ± 0.956 kcal/mol; Molar enthalpy of transition or fusion ([2]; Crystal 2): 0.12 ± 0.0717 kcal/mol; Molar enthalpy of transition or fusion ([2]; Nematic liquid crystal): 0.382 ± 0.0956 kcal/mol; molar heat capacity at constant pressure ([3]; Crystal 2): 455.5 ± 11 J/K/mol
c1ccc(-c2cccc(-c3ccccc3)c2)cc1 [m-terphenyl]	361.8 ± 0.7	6.09 ± 0.167		
c1ccc(-c2ccccc2-c2ccccc2-c2ccccc2)cc1 [o-quaterphenyl]	390.6 ± 0.5	6.5 ± 0.167	359.1 ± 8.3	
c1ccc(-c2ccccc2-c2ccccc2-c2ccccc2-c2ccccc2)cc1 [o-quinquephenyl]	428.8 ± 0.5	7.74 ± 0.191	444.3 ± 10	
c1ccc(-c2ccccc2-c2ccccc2)cc1 [o-terphenyl]	329.4 ± 0.4	4.06 ± 0.12		
c1ccc(-c2ccc(-c3ccccc3)cc2)cc1 [p-terphenyl]	490.9 ± 0.6	7.86 ± 0.215		

The next lines start with results.

Triple point temperature ([1]; Crystal) [K]	Molar enthalpy of transition or fusion ([2]; Crystal) [kcal/mol]	molar heat capacity at constant pressure ([3]; Crystal) [J/K/mol]	Structure (SMILES)	other results
387.1 ± 0.4	7.46 ± 0.191	443.7 ± 10	c1ccc(-c2cccc(-c3cccc(-c4cccc(-c5ccccc5)c4)c3)c2)cc1 [1,1':3',1'':3'',1'':3'',1''''-quinquephenyl]	
360 ± 0.4	6.62 ± 0.191	359.5 ± 8.4	c1ccc(-c2cccc(-c3cccc(-c4ccccc4)c3)c2)cc1 [metaquaterphenyl]	
